Measurements reported in a melting point compilation (Tetko et al.; mined from patent text by program, amines drawn as free bases though some values may be those of a salt).

| melting point | SMILES |
| --- | --- |
| 60 to 65 °C | CC(C)Cc1nn(C)c(=O)c2c(S(=O)CCCO)c(Cc3cccc4ccccc34)sc12 (stereo not given) |
| 82 to 83 °C | O=C1CCCc2onc(-c3ccccc3F)c21 |
| 227 °C | COCc1cc(C)nc2nc(S(=O)(=O)Nc3c(C)cccc3Cl)nn12 |
| 63 to 65 °C | CC(=O)N(C(C)=O)c1csc(Br)n1 |
| > 300 °C | Cn1c2cc(Cl)ccc2c2c(=O)[nH]c(-c3ccncc3)nc21 |
| 205 to 208 °C | CNc1c(F)cc2c(=O)c(C(=O)O)cn(-c3nc(N)c(F)cc3F)c2c1Br |
| 152 to 154 °C | C#Cc1cn(C2CC(OC(C)=O)C(COC(C)=O)O2)c(=O)[nH]c1=O (stereo not given) |
| 102 °C | Cc1cc(-n2ccnc2)c2cccc(OCc3c(Cl)ccc(S(=O)(=O)N4CCC[C@H]4C(=O)N4CCN(Cc5cccnc5)CC4)c3Cl)c2n1 |
| 148 to 150 °C | CNc1nc2c(cc1NC(=O)N1CCN(c3cc(OC)cc(OC)c3)CC1)CCC2 |
| 282 to 284 °C | N#Cc1ccc2c(c1)Cc1cc(C#N)ccc1-2 |
| 175 to 176 °C | O=c1c(CCCc2cncnc2)cc2cccnc2n1-c1cccc([N+](=O)[O-])c1 |
| 120 to 122 °C | CCCN(CCC)C(=O)CNc1nc(-c2ccccc2)ncc1N |
| 161 °C | CCn1nc(C)c(-c2ccc3c(c2)NC(=O)CO3)c1-c1ccc(F)cc1 |
| 191 to 193 °C | CCCCN(CCCC)c1ccc(C=Cc2ccc(C=CC3=C(C#N)C(=C(C#N)C#N)OC3(C)C(F)(F)F)s2)c(OC)c1 (stereo not given) |
| 215 °C | CCOc1ccc(-c2cncn2-c2ccc(S(=O)(=O)NC(C)(C)C)cc2)cc1 |
| 101 to 103 °C | CC(=O)Oc1nc(-c2ccccc2)sc1-c1ccccc1 |
| 161 to 163 °C | Cc1cc(C)c2c(n1)N(CCCCl)c1ccccc1N(C)C2=O |
| 173 to 175 °C | Cn1cc(C2=C(c3c4n(c5ccccc35)C[C@@H]3CN(C(=O)OC(C)(C)C)C[C@@H]3C4)C(=O)NC2=O)c2ccccc21 (relative stereo) |
| 138 to 139 °C | COC(=O)c1cc(-c2ccc(F)c(C)c2)nn(CC=Cc2ccc(Cl)cc2)c1=O |
| 114 to 115 °C | Cc1ccc(-c2nc3ccc(CN4CCN(C)CC4)cc3[nH]2)cc1C#Cc1cnc2cccnn12 |
| 121 °C | CCOC(=O)N1CCc2nc3cc(C)ccc3c(C)c2CC1 |
| 183 to 185 °C | c1cc(P(CCP(c2ccncc2)c2ccncc2)c2ccncc2)ccn1 |
| 187 to 188 °C | COc1ccccc1C(=O)NCC(=O)N1c2ccccc2N(Cc2ccccc2)C(=O)C2CCCC21 (stereo not given) |

| melting point | SMILES |
| --- | --- |
| 94 °C | O=Cc1cccnc1Nc1ccccc1F |
| 134 to 135 °C | COc1cc(C(=O)CCC(=O)c2cc(OC)c(OC)c(OC)c2)cc(I)c1OCc1ccccc1 |
| 98 to 99 °C | CC1=C(C)C2=NC(C)(C(C)C)C(=O)N2C1=O (stereo not given) |
| 47 °C | Clc1cnc(Sc2ccccc2)nc1 |
| 115 to 117 °C | CCCc1nc(C(O)C(C)(C)C)c(C#N)n1Cc1ccc(-c2ccccc2-c2nnnn2C(c2ccccc2)(c2ccccc2)c2ccccc2)cc1 (stereo not given) |
| 107 to 108 °C | O=C1C(c2ccccc2)=C(c2ccccc2)C(=O)N1Cc1cccc(F)c1 |
| 170 to 172 °C | Cc1cc(C)nc(SCC(CS(=O)(=O)c2ccc(-c3ccc(Cl)cc3)cc2)C(=O)O)n1 (stereo not given) |
| 200 to 201 °C | CCOC(=O)c1cc2cc(NC(=O)C[C@H]3O[C@H](c4cccc(OC)c4OC)c4cc(Cl)ccc4N(CC(C)(C)COC(C)=O)C3=O)ccc2[nH]1 |
| 186 to 187 °C | COc1ccc(N2CCN(c3c(C)c(C)c4c(c3C)C(c3ccc(C)cn3)C(C)(C)O4)CC2)cc1 (stereo not given) |
| 115 to 125 °C | COc1c(N2CCC(O)C(CO)C2)c(F)cc2c(=O)c(C(=O)O)cn(C3CC3)c12 (stereo not given) |
| 268 °C | Nc1ncc(-c2noc(-c3cnn4c(C(F)(F)F)cc(-c5ccc(F)c(F)c5)nc34)n2)cn1 |
| 185 to 187 °C | Oc1cccc2cnsc12 |
| 58 to 60 °C | CN1CCN(Cc2ccccc2)C(c2ccccc2)C1 (stereo not given) |
| 74 to 75 °C | CCOC(=O)CCCn1ccnc1CSc1ccc(N)cc1 |
| 117 to 119 °C | Cn1ccnc1Sc1ccccc1[N+](=O)[O-] |
| 245 °C | Cn1cncc1C(N)(c1ccc(C#N)cc1)c1ccc2c(c1)c(-c1cccc(Cl)c1)cc(=O)n2C (stereo not given) |
| 210 to 212 °C | O=S(=O)(c1ccccc1)n1nc(-c2ccncc2)nc1-c1ccncc1 |
| 148 to 151 °C | CCOc1cc2c(Nc3cc(OC)c(Cl)cc3Cl)c(C#N)cnc2cc1OCCCC1CCN(C)CC1 |
| 170 °C | O=S(CC(O)CCl)c1ncc(Cl)cn1 (stereo not given) |
| 270 to 273 °C | CC(C)(C)c1ccc2c(c1)-c1c(c(C(=O)C(C#N)C(=O)Nc3ccccc3)nn1-c1ccccc1)CO2 (stereo not given) |
| 152 °C | O=C(Nc1cccc(Cl)c1)c1c(C(F)(F)F)nc2c(C(F)(F)F)cccc2c1O |
| 68.7 to 69 °C | Cc1ccc(-c2cc(CN3CCN(C(=O)OC(C)(C)C)CC3)c(=O)n(CC(C)C)n2)cc1F |
| 198 to 200 °C | COc1cc2ncnc(N3CCN(C(=S)Nc4ccc(Cc5ccncc5)cc4)CC3)c2cc1OC |

| melting point | SMILES |
| --- | --- |
| 110 to 116 °C | CC(CCCO)C1CCC2C3CCC4CC(O)CCC4(C)C3CC(O)C12C (stereo not given) |
| 189 to 190 °C | Cn1cc(C(=O)NCc2ccc(Cl)cc2)c(=O)c2cc(CN3CC[C@@H](O)C3)oc21 |
| 265 to 267 °C | COC(=O)c1cccc(Cn2c(=O)c(=O)[nH]c3cc([N+](=O)[O-])ccc32)c1 |
| 218 to 219 °C | O=C(O)Cc1c(C(=O)c2cc(CO)ccn2)[nH]c2ccc(Cl)cc12 |
| 81 to 83 °C | C#Cc1ccc(-c2c(F)cccc2F)cc1 |
| > 300 °C | Oc1c2ncnc(S)c2nn1-c1ccccc1 |
| 166 to 170 °C | N#CSc1nc(Cl)ncc1Br |
| 121 to 125 °C | O=C(O)C(Sc1ccc(Cl)cc1)c1ccc(Oc2ccccc2)cc1 (stereo not given) |
| 134 to 136 °C | CCOC(=O)C1=C(C)NC(C)=C(C(=O)OCC)C1c1ccccc1OCc1ccccc1 |
| 251 to 253 °C | CCc1[nH]cc2c1-c1ccc(Cl)cc1C(c1ccccc1Cl)=NC2 |
| 56 to 58 °C | CC(C)N1CCN(c2ccc(C(=O)NCCCCCCCCCCCCO[N+](=O)[O-])cn2)CC1 |
| 162 to 164 °C | CN(C)CCNc1c2nc3ccccc3c-2n(C)c2ccccc12 |
| > 360 °C | Cc1nc2cc(C34CC5CC(CC(C5)C3)C4)cc(-c3ccc(C=C4SC(=S)NC4=O)cc3)c2o1 |
| 135 to 137 °C | COc1ccccc1N1CCN(CCCNC(=O)c2cccc3c(=O)c(C)c(-c4cccc([N+](=O)[O-])c4)oc23)CC1 |
| 205 to 212 °C | CC(C)CC(NCC(=O)NOCc1ccccc1)C(=O)NC(Cc1ccc2ccccc2c1)C(=O)NC(C)C(N)=O (stereo not given) |
| > 300 °C | CC(=O)OCCCCC#Cc1ccc2c3ccc4c5c(ccc(c6cccc1c62)c53)C(=O)N(c1c(C(C)C)cccc1C(C)C)C4=O |
| 134 to 136 °C | CCCCCC(=O)c1cccc(NC(=O)c2ccc(Cl)cc2O)c1 |
| 92 to 93 °C | CN(CCCNC(=O)CSc1nc2ccc(N(C)C)nc2s1)Cc1ccc(Cl)c(Cl)c1 |
| 221 to 225 °C | Nc1ncc(-c2ccccc2F)nc1C(=O)Nc1cccnc1 |
| 134 to 136 °C | COc1ccc2c(c1)C(=O)OC2C(Cl)(Cl)Cl (stereo not given) |
| 69 to 70 °C | COc1nc(I)cc(C(O)Cc2ccccc2)c1C (stereo not given) |
| 169 to 172 °C | CCN1CSC(=Cc2cc(C(C)(C)C)c(O)c(C(C)(C)C)c2)C1=O |
| 138 to 139 °C | Cc1cc2c(c([N+](=O)[O-])c1)N(c1ccccc1C#N)CC2 |

| melting point | SMILES |
| --- | --- |
| 113 to 114 °C | O=C1N[C@H](Cc2cccc(OCC(F)(F)C(F)F)c2)[C@H](c2ccc(F)cc2)O1 (racemic) |
| 205 to 208 °C | COc1ccc(CCc2oc3ccc(C#N)cc3c2C(=O)O)cc1 |
| 172 to 174 °C | CCCCCC1(C(=O)Nc2ccc(C(=O)O)cn2)CC2=C(C1)C(C)(C)CCC2(C)C |
| 210 to 212 °C | O=C(O)c1cc(Br)c(O)cc1O |
| 225 to 227 °C | COc1ccc(C(=O)Nc2ccccc2)cc1NC(=NC#N)Nc1cc(Cl)cc(Cl)c1 |
| 88 to 90 °C | COc1ccc(C2CNC(=O)C2)cc1OCCC(C)N1CCN(c2ccccc2)CC1 (stereo not given) |
| 88 to 89 °C | CC1(C)Cc2ccc(Cl)cc2C=[N+]1[O-] |
| 200 to 203 °C | COC(=O)COc1ccc(C(=O)CNC(=O)c2ccc(C#N)cc2)cc1 |
| 235 to 237 °C | NC(=O)C(=O)Nc1nc(-c2oncc2-c2c(F)cccc2Cl)cs1 |
| 119 to 121 °C | CC#CC(Cc1cccnc1)(C(=O)O)S(=O)(=O)c1ccc(OC)cc1 (stereo not given) |
| 168 to 170 °C | CCC1CN(c2nc(C)nc(NC)n2)c2ccccc21 (stereo not given) |
| 144 to 146 °C | Cc1ccc2oc([N+](=O)[O-])c(-c3ccccc3)c2c1 |
| 123 to 124 °C | CC(=O)OC1OC(COC(=O)c2ccccc2)CC(OC(=O)c2ccccc2)C1OC(=O)c1ccccc1 (stereo not given) |
| 170 °C | Cc1oc2c(C)cc(C3CC(=O)OC(=O)C3)cc2c1C |
| 222 °C | O=C(c1ccc(Cl)cc1)c1sc2cc(O)ccc2c1-c1ccccc1 |
| 119 to 120 °C | Nc1ccc(N2CCN(c3ccccn3)CC2)cc1 |
| 99.5 to 101 °C | CCc1noc(C)c1C(=O)Nc1cccc(F)c1 |
| 80 °C | CC(C)CCCC(C)C1CCC2C3CC=C4CC(OCCCCCCN5C(=O)c6ccccc6C5=O)CCC4(C)C3CCC12C (stereo not given) |
| < 50 °C | CCOC(=O)c1cc(F)ccc1[N+](=O)[O-] |
| 143 to 145 °C | CC(C)C(=O)Nc1ccc(I)c(C(F)(F)F)c1 |
| 66.9 to 70.6 °C | CCc1nn2ccccc2c1N(CCF)C(=O)COC |
| 211 to 212 °C | Oc1ccccc1-c1ncc2ncc(Cl)cc2n1 |

| SMILES | melting point |
| --- | --- |
| O=c1c2c(F)cccc2nc(CSc2ncnc3[nH]cnc23)n1-c1ccccc1Cl | 223 to 224 °C |
| NC1=Nc2ccc(I)cc2C(c2ccccc2F)=NC1 | 219 to 221 °C |
| CCCCOc1cc2c(cc1C(=O)NC)CC(N(CCC)CCC)C2 (stereo not given) | 129 to 130 °C |
| CN1C(=O)CN=C(c2ccccc2F)c2cc(NC(=O)NC(C)(C)C)ccc21 | 210 °C |
